Experiment: In vitro dissolution test of Drug 1 from tablets (simulated intestinal buffer pH 6.8 with 0.5 wt % sodium lauryl sulfate)
Type: physicochemical
Details: 120 mgA tablet of Example 2, 900 mL pH 6.8 buffer + 0.5 wt % SLS, 37° C., 100 rpm, average of two tests
Protocol: An in vitro test may be used to determine whether a dosage form provides a release profile within the scope of the present invention. In vitro tests are well known in the art. One example is a so-called “direct” test, where the dosage form is placed into a stirred USP type 2 dissoette flask containing 900 mL of a dissolution medium maintained at 37° C., such as a buffer solution simulating a gastric environment (10 mM HCl, 100 mM NaCl, pH 2.0, 261 mOsm/kg) or the PBS or MFD solutions previously described. One skilled in the art will understand that in such tests the dissolution medium should act as a sink for the drug in the dosage form. By “sink” is meant that the composition and volume of the dissolution medium is sufficient such that substantially all of the drug in the dosage form will dissolve into the dissolution medium within about 4 hours or less. In some cases a surfactant, such as sodium lauryl sulfate or other excipients may be added to the dissolution medium to ensure the dissolution medium acts as a sink for the drug. The dosage form is placed in a wire support to keep the dosage form off of the bottom of the flask, so that all of its surfaces are exposed to the dissolution medium, and the medium is stirred using paddles that rotate at a rate of 50 rpm. Samples of the dissolution medium are taken at periodic intervals using a VanKel VK8000 autosampling dissoette with automatic receptor solution replacement. The concentration of dissolved drug in the dissolution medium is then determined by High Performance Liquid Chromatography (HPLC), by comparing UV absorbance of samples to the absorbance of drug standards. The mass of dissolved drug in the dissolution medium is then calculated from the concentration of drug in the medium and the volume of the medium, which value is used to calculate the actual amount of drug released from the dosage form, taking into consideration the mass of drug originally present in the dosage form.
Drug 1 dissolution from the tablets of Example 2 was measured using an in vitro test. First, a dissolution medium consisting of a simulated intestinal buffer solution was made by dissolving 6.8 g of KH2PO4 in 750 mL of deionized water with 85 mL 0.2M NaOH. Water was added for a final volume of 1 L. The pH was adjusted to 6.8±0.1 using 0.2M NaOH. Next, 0.5 wt % sodium lauryl sulfate was added to the buffer. A 900 mL sample of this solution was added to each of two vessels in a VanKel dissolution testing apparatus with automatic sampling. The solution temperature was maintained at 37° C., and stirred with a paddle speed of 100 rpm. This dissolution medium acted as a sink for the 120 mgA tablets. After equilibration to 37° C., a tablet of Example 2 was added to each vessel containing the buffer solution, resulting in a Drug 1 concentration of 130 μgA/mL, assuming all of the drug had dissolved. Samples were collected at 5, 15, 20, 35, 45, 60, 75, 90, 120 and 180 minutes, and then analyzed by HPLC using a Waters Symmetry C8 column. The mobile phase consisted of 0.2 vol % H3PO4 (in water)/methanol in the ratio of 15/85 (vol/vol). Drug 1 concentration was calculated by comparing UV absorbance at 256 nm to the absorbance of Drug 1 standards.

- Drug 1 Concentration (time 0 min): 0 μgA/mL
- Drug 1 Released (time 0 min): 0 wt %
- Drug 1 Concentration (time 5 min): 49 μgA/mL
- Drug 1 Released (time 5 min): 37 wt %
- Drug 1 Concentration (time 15 min): 114 μgA/mL
- Drug 1 Released (time 15 min): 87 wt %
- Drug 1 Concentration (time 20 min): 123 μgA/mL
- Drug 1 Released (time 20 min): 94 wt %
- Drug 1 Concentration (time 35 min): 126 μgA/mL
- Drug 1 Released (time 35 min): 96 wt %
- Drug 1 Concentration (time 45 min): 126 μgA/mL
- Drug 1 Released (time 45 min): 96 wt %
- Drug 1 Concentration (time 60 min): 125 μgA/mL
- Drug 1 Released (time 60 min): 95 wt %
- Drug 1 Concentration (time 75 min): 128 μgA/mL
- Drug 1 Released (time 75 min): 98 wt %
- Drug 1 Concentration (time 90 min): 127 μgA/mL
- Drug 1 Released (time 90 min): 97 wt %
- Drug 1 Concentration (time 120 min): 127 μgA/mL
- Drug 1 Released (time 120 min): 97 wt %
- Drug 1 Concentration (time 180 min): 131 μgA/mL
- Drug 1 Released (time 180 min): 100 wt %
SMILES: CCOC(=O)N1c2ccc(C(F)(F)F)cc2C(N(Cc2cc(C(F)(F)F)cc(C(F)(F)F)c2)C(=O)OC)CC1CC (stereo not shown) [Drug 1, 4-[(3,5-bis-trifluoromethyl-benzyl)-methoxycarbonyl-amino]-2-ethyl-6-trifluoromethyl-3,4-dihydro-2H-quinoline-1-carboxylic acid ethyl ester]
